Test results as given in BindingDB's records for doi:10.1016/0960-894X(95)00509-R (1995).
pKi: −log10 of the molar value.

What follows are compounds tested against Platelet-activating factor receptor (Oryctolagus cuniculus) (assay: Tested in vitro for antagonistic activity to displace [3H]PAF from rabbit platelet membrane PAF receptors).
`CN(C)C(=O)Cn1cc(C(=O)c2ccn3c2CSC3c2cccnc2)c2ccc(-c3ccc(F)cc3)cc21` (stereo not given) [2-[6-(4-Fluoro-phenyl)-3-(3-pyridin-3-yl-1H-pyrrolo[1,2-c]thiazole-7-carbonyl)-indol-1-yl]-N,N-dimethyl-acetamide] showed a pKi of 9.15. `CN(C)C(=O)n1cc(C(=O)c2ccn3c2CSC3c2cccnc2)c2ccccc21` (stereo not given) [3-(3-Pyridin-3-yl-1H-pyrrolo[1,2-c]thiazole-7-carbonyl)-indole-1-carboxylic acid dimethylamide] showed a pKi of 7.02. `CC(C)(C)OC(=O)n1cc(C(=O)c2ccn3c2CSC3c2cccnc2)c2ccccc21` (stereo not given) [3-(3-Pyridin-3-yl-1H-pyrrolo[1,2-c]thiazole-7-carbonyl)-indole-1-carboxylic acid tert-butyl ester] was tested, and the pKi was 6.96. Work on `CN(C)C(=O)n1cc(C(=O)c2ccn3c2CSC3c2cccnc2)c2cc(OCc3ccccc3)ccc21` (stereo not given) [5-Benzyloxy-3-(3-pyridin-3-yl-1H-pyrrolo[1,2-c]thiazole-7-carbonyl)-indole-1-carboxylic acid dimethylamide] yielded a pKi of 6.92. Compound `CN(C)C(=O)n1cc(C(=O)c2ccn3c2CSC3c2cccnc2)c2ccc(Oc3ccc(F)cc3)cc21` (stereo not given) [6-(4-Fluoro-phenoxy)-3-(3-pyridin-3-yl-1H-pyrrolo[1,2-c]thiazole-7-carbonyl)-indole-1-carboxylic acid dimethylamide] has a pKi of 8.77. `NC(=O)n1cc(C(=O)c2ccn3c2CSC3c2cccnc2)c2ccc(-c3ccc(F)cc3)cc21` (stereo not given) [6-(4-Fluoro-phenyl)-3-(3-pyridin-3-yl-1H-pyrrolo[1,2-c]thiazole-7-carbonyl)-indole-1-carboxylic acid amide] was tested, and the pKi was 8.22. With `CCNC(=O)n1cc(C(=O)c2ccn3c2CSC3c2cccnc2)c2ccc(-c3ccc(F)cc3)cc21` (stereo not given) [6-(4-Fluoro-phenyl)-3-(3-pyridin-3-yl-1H-pyrrolo[1,2-c]thiazole-7-carbonyl)-indole-1-carboxylic acid ethylamide] the pKi was 7.72. In the case of `NNC(=O)n1cc(C(=O)c2ccn3c2CSC3c2cccnc2)c2ccc(-c3ccc(F)cc3)cc21` (stereo not given) [6-(4-Fluoro-phenyl)-3-(3-pyridin-3-yl-1H-pyrrolo[1,2-c]thiazole-7-carbonyl)-indole-1-carboxylic acid hydrazide], the pKi was 7.60. `CN(C)C(=O)n1cc(C(=O)c2ccn3c2CSC3c2cccnc2)c2ccc(Sc3ccc(F)cc3)cc21` (stereo not given) [6-(4-Fluoro-phenylsulfanyl)-3-(3-pyridin-3-yl-1H-pyrrolo[1,2-c]thiazole-7-carbonyl)-indole-1-carboxylic acid dimethylamide] gave a pKi of 7.77. Work on `CN(C)C(=O)n1cc(C(=O)c2ccn3c2CSC3c2cccnc2)c2ccc(Cc3ccccc3)cc21` (stereo not given) [6-Benzyl-3-(3-pyridin-3-yl-1H-pyrrolo[1,2-c]thiazole-7-carbonyl)-indole-1-carboxylic acid dimethylamide] yielded a pKi of 7.89. In the case of `CN(C)C(=O)n1cc(C(=O)c2ccn3c2CSC3c2cccnc2)c2ccc(OCc3ccccc3)cc21` (stereo not given) [6-Benzyloxy-3-(3-pyridin-3-yl-1H-pyrrolo[1,2-c]thiazole-7-carbonyl)-indole-1-carboxylic acid dimethylamide], the pKi was 7.77. Work on `CN(C)C(=O)n1cc(C(=O)c2ccn3c2CSC3c2cccnc2)c2ccc(Cl)cc21` (stereo not given) [6-Chloro-3-(3-pyridin-3-yl-1H-pyrrolo[1,2-c]thiazole-7-carbonyl)-indole-1-carboxylic acid dimethylamide] yielded a pKi of 7.05. Work on `CN(C)C(=O)n1cc(C(=O)c2ccn3c2CSC3c2cccnc2)c2ccc(-c3ccccc3)cc21` (stereo not given) [6-Phenyl-3-(3-pyridin-3-yl-1H-pyrrolo[1,2-c]thiazole-7-carbonyl)-indole-1-carboxylic acid dimethylamide] yielded a pKi of 7.64. For `O=C(c1ccn2c1CSC2c1cccnc1)c1c[nH]c2cccc(O)c12` (stereo not given) [(4-Hydroxy-1H-indol-3-yl)-(3-pyridin-3-yl-1H-pyrrolo[1,2-c]thiazol-7-yl)-methanone], the pKi was 6.49. Work on `O=C(c1ccn2c1CSC2c1cccnc1)c1c[nH]c2ccc(OCc3ccccc3)cc12` (stereo not given) [(5-Benzyloxy-1H-indol-3-yl)-(3-pyridin-3-yl-1H-pyrrolo[1,2-c]thiazol-7-yl)-methanone] yielded a pKi of 6.74. Compound `O=C(c1ccn2c1CSC2c1cccnc1)c1c[nH]c2cc(OCc3ccccc3)ccc12` (stereo not given) [(6-Benzyloxy-1H-indol-3-yl)-(3-pyridin-3-yl-1H-pyrrolo[1,2-c]thiazol-7-yl)-methanone] has a pKi of 7.19. For `O=C(c1ccn2c1CSC2c1cccnc1)c1c[nH]c2c(OCc3ccccc3)cccc12` (stereo not given) [(7-Benzyloxy-1H-indol-3-yl)-(3-pyridin-3-yl-1H-pyrrolo[1,2-c]thiazol-7-yl)-methanone], the pKi was 7.05. In the case of `O=C(c1ccn2c1CSC2c1cccnc1)c1cn(C(=O)N2CCOCC2)c2ccccc12` (stereo not given) [Morpholin-4-yl-[3-(3-pyridin-3-yl-1H-pyrrolo[1,2-c]thiazole-7-carbonyl)-indol-1-yl]-methanone], the pKi was 6.65. Compound `Cn1cc(C(=O)c2ccn3c2CSC3c2cccnc2)c2ccc(-c3ccc(F)cc3)cc21` (stereo not given) [[6-(4-Fluoro-phenyl)-1-methyl-1H-indol-3-yl]-(3-pyridin-3-yl-1H-pyrrolo[1,2-c]thiazol-7-yl)-methanone] has a pKi of 8.15. `O=C(c1ccn2c1CSC2c1cccnc1)c1c[nH]c2cc(-c3ccc(F)cc3)ccc12` (stereo not given) [[6-(4-Fluoro-phenyl)-1H-indol-3-yl]-(3-pyridin-3-yl-1H-pyrrolo[1,2-c]thiazol-7-yl)-methanone] gave a pKi of 7.12.
